Experimental findings from PubChem BioAssay (NCI) are described below.

Among the test systems are MCF7 breast; HS 578T breast; NCI-H23 lung; SF-268 CNS; SNB-19 CNS; HOP-92 NSCLC; RPMI-8226 leukemia; BT-549 breast; RXF 393 renal; A498 renal.
Holding throughout (experiment): NCI anticancer screen, dose series, 48 h

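Protocol summary: plate cells (96-well), add compound at 5 concentrations, incubate 48 h, interpolate endpoints linearly. GI50 is the concentration that inhibits growth by half. TGI: concentration producing complete growth inhibition.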 Bounds are passed on as bounds.

For `CO/N=C(\C)c1ccc(Nc2cc(-c3ccccc3)nc3ccc(OC)cc23)cc1`, the GI50 in the test with MCF7 breast is 5.01 µM; with HS 578T breast, 3.5 µM; with NCI-H23 lung, 2.52 µM; in the test on SF-268 CNS it was 10.2 µM; in the test on SNB-19 CNS, 5.97 µM; in the test with HOP-92 NSCLC, 2.14 µM. Moreover, the GI50 is 2.79 µM in the test on RPMI-8226 leukemia and 5.61 µM with BT-549 breast. In addition, the TGI in the test with MCF7 breast is 24.4 µM; in the test on HS 578T breast it was 9.44 µM; in the test with NCI-H23 lung it was 10.3 µM; in the test with SF-268 CNS it was 28.8 µM; with SNB-19 CNS, above 100 µM; with HOP-92 NSCLC, 6.77 µM. The TGI in the test with RPMI-8226 leukemia is 9.64 µM; with BT-549 breast, 21.4 µM.

Take `C=CC(=O)Nc1cc(C)ccc1Nc1nc(Nc2cc(OC)ncc2C)ncc1C(F)(F)F`: the GI50 in the test on RXF 393 renal was 0.352 µM; in the test with A498 renal, 0.157 µM; with MCF7 breast, 0.864 µM; in the test on HS 578T breast, 0.869 µM; in the test with NCI-H23 lung it was 0.635 µM; in the test with SF-268 CNS, 1.28 µM. In addition, the GI50 with SNB-19 CNS is 0.936 µM; with HOP-92 NSCLC it was 0.188 µM; with RPMI-8226 leukemia, 0.634 µM; in the test on BT-549 breast, 0.585 µM. The TGI in the test on RXF 393 renal is 1.85 µM; with A498 renal it was 0.598 µM; in the test with MCF7 breast, above 32.8 µM; in the test on HS 578T breast it was 4.86 µM; in the test on NCI-H23 lung, above 22.9 µM; in the test on SF-268 CNS, above 100 µM. Besides, the TGI is above 100 µM in the test with SNB-19 CNS, 0.981 µM with HOP-92 NSCLC, above 25.3 µM with RPMI-8226 leukemia and 6.07 µM in the test on BT-549 breast.

Consider `C/C(=N\NS(=O)(=O)c1ccc(C)cc1)P(=O)(O)O`, for which the TGI with RXF 393 renal, with A498 renal, with MCF7 breast, with HS 578T breast, with NCI-H23 lung and with SF-268 CNS was above 100 µM in each case. The TGI with SNB-19 CNS, in the test with HOP-92 NSCLC, with RPMI-8226 leukemia and in the test with BT-549 breast was above 100 µM each time.

For `CC(=O)c1c(C)[nH]c(-c2nc3ccc(N4CCN(C)CC4)cc3[nH]2)c1-c1ccc(N(C)C)cc1`, the GI50 with RXF 393 renal is 0.486 µM; with A498 renal it was 0.323 µM; with MCF7 breast, 0.24 µM; in the test with HS 578T breast it was 0.396 µM; in the test with NCI-H23 lung, 2 µM; with SF-268 CNS it was 4.1 µM. Also, the GI50 is 1.89 µM in the test on SNB-19 CNS, 0.147 µM in the test with HOP-92 NSCLC, 0.25 µM with RPMI-8226 leukemia and 3.05 µM with BT-549 breast. Besides, the TGI with RXF 393 renal came out at 2.08 µM; with A498 renal, 1.98 µM; with MCF7 breast, 7.78 µM; in the test with HS 578T breast, 7.23 µM; in the test with NCI-H23 lung, 21.4 µM; in the test with SF-268 CNS, 26.8 µM. Moreover, the TGI is above 100 µM in the test with SNB-19 CNS, 2.53 µM in the test on HOP-92 NSCLC, 1.64 µM with RPMI-8226 leukemia and 18.6 µM in the test with BT-549 breast.

Regarding `COc1cc(N(C)C)c(OC)cc1/C=C\c1ccnc2ccccc12`, the TGI in the test on RXF 393 renal is above 10 µM; in the test on A498 renal, 9.92 µM; in the test on MCF7 breast, above 10 µM; in the test with HS 578T breast it was above 10 µM; in the test on NCI-H23 lung, above 10 µM; with SF-268 CNS it was above 10 µM. Moreover, the TGI is above 10 µM in the test on SNB-19 CNS, 9.42 µM with HOP-92 NSCLC, 7.32 µM in the test on RPMI-8226 leukemia and above 10 µM in the test on BT-549 breast.

As for `CCN(CC)CCCNCc1cc(-c2ccccc2)nc2ccccc12`, the GI50 is 6.99 µM in the test on RXF 393 renal; 12.3 µM with A498 renal; 4.12 µM with MCF7 breast; 16.8 µM in the test on HS 578T breast; 6.07 µM in the test on NCI-H23 lung; 4.72 µM with SF-268 CNS. Also, the GI50 was 14.2 µM in the test on SNB-19 CNS, 2.34 µM with HOP-92 NSCLC, 2.53 µM with RPMI-8226 leukemia and 3.77 µM with BT-549 breast. The TGI in the test with RXF 393 renal is 39.9 µM; in the test with A498 renal, 41.3 µM; in the test with MCF7 breast, 16.9 µM; in the test on HS 578T breast, above 100 µM; in the test on NCI-H23 lung it was 85.2 µM; with SF-268 CNS, above 100 µM. For the same compound, the TGI in the test with SNB-19 CNS is above 100 µM; in the test with HOP-92 NSCLC, 9.41 µM; with RPMI-8226 leukemia, 16.5 µM; with BT-549 breast, 15.9 µM.

As to `COC(=O)c1cc(O)c2cc3c(cc2c1-c1cc(OC)c(OC)c(OC)c1)OCO3`, the GI50 in the test on RXF 393 renal is 2.95 µM; in the test on A498 renal it was 0.494 µM; in the test with MCF7 breast, 0.459 µM; in the test on HS 578T breast, 1.43 µM; with NCI-H23 lung, 3.77 µM; in the test on SF-268 CNS it was 2.94 µM. The values for the GI50 with SNB-19 CNS, in the test with HOP-92 NSCLC and in the test on BT-549 breast were 3.57 µM, 4.19 µM and 7.87 µM, respectively. Further, the TGI with RXF 393 renal was above 100 µM; with A498 renal, above 100 µM; with MCF7 breast it was above 100 µM; in the test with HS 578T breast, 9.48 µM; in the test with NCI-H23 lung it was above 100 µM; with SF-268 CNS it was above 100 µM. In addition, the values for the TGI in the test with SNB-19 CNS, with HOP-92 NSCLC and in the test with BT-549 breast were above 100 µM, 48.1 µM and above 100 µM, respectively.

On to `NCC1OC(n2cnc3c(N)ncnc32)CC1O` (stereo not drawn), for which the TGI with RXF 393 renal, in the test with A498 renal, in the test with MCF7 breast, in the test with HS 578T breast, in the test on NCI-H23 lung and with SF-268 CNS was above 100 µM throughout. The TGI in the test with SNB-19 CNS, with HOP-92 NSCLC, in the test with RPMI-8226 leukemia and with BT-549 breast was above 100 µM in each case.

Consider `Cn1c2c(c3ccc([N+](=O)[O-])cc3c1=O)C(=O)c1ccccc1-2`, for which the GI50 in the test with A498 renal, in the test on MCF7 breast, in the test with HS 578T breast, with SF-268 CNS, in the test with SNB-19 CNS and with HOP-92 NSCLC was above 100 µM throughout. Also, in the test with BT-549 breast, the GI50 is above 100 µM. For the same compound, the TGI in the test on A498 renal, in the test with MCF7 breast, in the test with HS 578T breast, in the test with SF-268 CNS, with SNB-19 CNS and with HOP-92 NSCLC was above 100 µM each time. The compound further showed a TGI with BT-549 breast above 100 µM.
